In patent publication US6589937B1, “Peptides and nootropic agent” (Kabushiki Kaisha Yakult Honsha, priority 1996, dated 2003):
Where a SMILES comes first, the peptide text is derived from it. [ ]: non-standard residue; d: D form. The star is where a group is joined. X1 = N=C(N)NCCC[C@H](N)C(=O)N[C@@H](Cc1c[nH]cn1)C(=O)N1CCC[C@H]1C(=O)N[C@@H](CS*)C(=O)O; pGlu = O=C1CC[C@@H](C(=O)O)N1

How the values were obtained:
[1] = Evaluation of brain transition (CNS distribution after i.v. administration); settings: mouse, in vivo, iv
Description: C-AVP 4-9-000 (389 Ci/mmol) labeled with ^125I by the chloramine-T method was administered (i.v.) to mice in 1 μCi, ^125I-C-AVP 4-9-000 in plasma was quantitated by separating the methanol extract using Radio-HPLC.
In the case of AS22, the radioactivity contained in the trifluoroacetic acid precipitate fraction was made the ^125I-AS22 amount. Further, ^125I-C-AVP 4-9-000 was quantitated by separating the methanol extract using Radio-HPLC.

[2] = format: in vitro ADME, rat
Description: C-AVP 4-9 series compound can be hydrolyzed in brain by the action of prolyl endopeptidase, and it is considered that they are converted to AVP 4-9.
Therefore, 500 μM of C-AVP 4-9-000 were incubated (6 hr., 37° C.) with a rat cerebral homogenate (100 μg/rat) in the presence or in the absence of carbobenzoyloxy prolyl-prolinal (ZPP, 20 μM) as known as a potent inhibitor for propyl endopeptitase. After incubation metabolites were extracted with methanol. The metabolites were analyzed by HPLC. Further, ZPP is a specific inhibitor for prolyl endopeptidase. After methanol extraction, the metabolites were quantitated by the separation with HPLC.

[3] = PI value by isoelectrofocusing (capillary electrophoresis); format: physicochemical; settings: peptide 5 μg, UV 214 nm
Description: Further, the PI value was analyzed by the isoelectrofocusing method for the peptide 5 μg using a capillary electrophoretic apparatus (Beckman P/ACE 5000) and an isoelectrofocusing kit (eCAP 3-10, Beckman). The detection was carried out by UV 214 nm.

rats = assay: Passive avoidance test, administration 180 min before retention test; format: in vivo; settings: rat, s.c., administered 3 hr before retention test
Description: The test solution in which each of these test drugs dissolved in saline was subcutaneously administered to rats. As to animals, male Wister rats (aged 7-9 weeks) were bought from Japan Charles River (JCR) and used after the preliminary feeding for more than one week. At the time of the preliminary feeding it lighted up from AM 8.00 to PM 8.00.
It was carried out by partially modifying the method of Ader R. R. (Psycon. Sci., 26, p125-128, 1972). Namely, rats were let stay in a light room of the passive avoidance test apparatus consisting of a light and dark rooms, and were let move freely for 2 min. After 45 min., the rats were let stay again in the light room. When the rats went into the dark room, the electric current 0.3 mA was applied for 30 sec. by Muromachikikai SGS-002 on the floor of the dark room. Further, in all processes of the experiment the rats were let move freely between the dark room and the light room. Each peptide was subcutaneously administered at 23 hr. (1 hr. before the retention test) after the electric shock. Subsequently, the rats were let stay in the light room after 1 hr. (24 hr. after the electric shock), the time (latency) when the rats went into the dark room was measured (retention test).
The test was carried out according to the test 2 except that the administration of the test solution was made at 21 hr. […]

Row | formation of AVP 4-9 after 6 hour's incubation [2] | parent remaining after 6 hour's incubation ([2]; rat, brain homogenate, 6 h) | Compound | transition into brain [1] | PI values [3] | effectiveness in passive avoidance (latency) (rats)
1 | the formation of AVP 4-9 was observed | scarcely remained | N=C(N)NCCC[C@H](NC(=O)[C@@H]1CCCN1C(=O)[C@H](CSSC[C@H](NC(=O)[C@@H]1CCCN1C(=O)[C@H](Cc1c[nH]cn1)NC(=O)[C@@H](N)CCCNC(=N)N)C(=O)O)NC(=O)[C@H](CC(N)=O)NC(=O)[C@@H]1CCC(=O)N1)C(=O)NCC(N)=O [C-AVP 4-9-000] ([pGlu]NC(X1)PRG-NH2) | transited into brain in a sufficient concentration | – | –
2 | – | – | pGlu-Asn-Cys-Pro-Arg-Gly-NH2 ([pGlu]NCPRG-NH2) [AVP 4-9, 4-9 fragment of arginine vasopressin, control drug] | – | 9.27 | did not show any significant effectiveness
